The values below are quoted from earlier work in US20040265272A1, “Mammalian cell-infecting virus vector encoding epitope-bound beta2m and utilization thereof” (priority 2001, published 2004).

The test system of this data set is CTL. The note with it: HLA-A24- or HLA-A26-restricted peptide; cancer patients.

Take “SART-1 690-698: HLA-A24-restricted peptide of the SART-1 antigen (EYRGFTQDF; UniProt O43290 690-698, looked up, fragment)”: the CTL induction entry is on record as “strongly induced CTL”.
On to “SART-1 736-744: HLA-A26-restricted peptide of the SART-1 antigen (KGSGKMKTE; UniProt O43290 736-744, looked up, fragment)”, for which the CTL induction result is “induced CTL in cancer patients with HLA-A2601, -A2602, or -A2603”.
